Assay results reported in patent US9096500B2, “Acyl sulfonamide compounds” (Pfizer Limited, priority 2010, dated 2015).

Target: T1, Nav1.7 (or SCN9A) channel (Homo sapiens, UniProt Q15858)
T1 construct: expressed in transfected cells
Experiment: Nav1.7 (hSCN9A) electrophysiology assay, PatchXpress platform
Type: cell-based
Conditions: estimated IC50 from single point electrophysiology data, HEK cells stably expressing hSCN9A, held at V1/2 of inactivation, read-out: Nav1.7 EIC50
Method in brief: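 HEK cells stably expressing hSCN9A were recorded by whole-cell voltage clamp, including on PatchXpress, at 22–24°C with extracellular solution at pH 7.4. A 20 msec step to 0 mV followed an 8 s conditioning prepulse to the empirically determined inactivation V1/2. Inhibition was taken from current amplitude before vs after compound.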

T1 sequence (Q15858 whole entry): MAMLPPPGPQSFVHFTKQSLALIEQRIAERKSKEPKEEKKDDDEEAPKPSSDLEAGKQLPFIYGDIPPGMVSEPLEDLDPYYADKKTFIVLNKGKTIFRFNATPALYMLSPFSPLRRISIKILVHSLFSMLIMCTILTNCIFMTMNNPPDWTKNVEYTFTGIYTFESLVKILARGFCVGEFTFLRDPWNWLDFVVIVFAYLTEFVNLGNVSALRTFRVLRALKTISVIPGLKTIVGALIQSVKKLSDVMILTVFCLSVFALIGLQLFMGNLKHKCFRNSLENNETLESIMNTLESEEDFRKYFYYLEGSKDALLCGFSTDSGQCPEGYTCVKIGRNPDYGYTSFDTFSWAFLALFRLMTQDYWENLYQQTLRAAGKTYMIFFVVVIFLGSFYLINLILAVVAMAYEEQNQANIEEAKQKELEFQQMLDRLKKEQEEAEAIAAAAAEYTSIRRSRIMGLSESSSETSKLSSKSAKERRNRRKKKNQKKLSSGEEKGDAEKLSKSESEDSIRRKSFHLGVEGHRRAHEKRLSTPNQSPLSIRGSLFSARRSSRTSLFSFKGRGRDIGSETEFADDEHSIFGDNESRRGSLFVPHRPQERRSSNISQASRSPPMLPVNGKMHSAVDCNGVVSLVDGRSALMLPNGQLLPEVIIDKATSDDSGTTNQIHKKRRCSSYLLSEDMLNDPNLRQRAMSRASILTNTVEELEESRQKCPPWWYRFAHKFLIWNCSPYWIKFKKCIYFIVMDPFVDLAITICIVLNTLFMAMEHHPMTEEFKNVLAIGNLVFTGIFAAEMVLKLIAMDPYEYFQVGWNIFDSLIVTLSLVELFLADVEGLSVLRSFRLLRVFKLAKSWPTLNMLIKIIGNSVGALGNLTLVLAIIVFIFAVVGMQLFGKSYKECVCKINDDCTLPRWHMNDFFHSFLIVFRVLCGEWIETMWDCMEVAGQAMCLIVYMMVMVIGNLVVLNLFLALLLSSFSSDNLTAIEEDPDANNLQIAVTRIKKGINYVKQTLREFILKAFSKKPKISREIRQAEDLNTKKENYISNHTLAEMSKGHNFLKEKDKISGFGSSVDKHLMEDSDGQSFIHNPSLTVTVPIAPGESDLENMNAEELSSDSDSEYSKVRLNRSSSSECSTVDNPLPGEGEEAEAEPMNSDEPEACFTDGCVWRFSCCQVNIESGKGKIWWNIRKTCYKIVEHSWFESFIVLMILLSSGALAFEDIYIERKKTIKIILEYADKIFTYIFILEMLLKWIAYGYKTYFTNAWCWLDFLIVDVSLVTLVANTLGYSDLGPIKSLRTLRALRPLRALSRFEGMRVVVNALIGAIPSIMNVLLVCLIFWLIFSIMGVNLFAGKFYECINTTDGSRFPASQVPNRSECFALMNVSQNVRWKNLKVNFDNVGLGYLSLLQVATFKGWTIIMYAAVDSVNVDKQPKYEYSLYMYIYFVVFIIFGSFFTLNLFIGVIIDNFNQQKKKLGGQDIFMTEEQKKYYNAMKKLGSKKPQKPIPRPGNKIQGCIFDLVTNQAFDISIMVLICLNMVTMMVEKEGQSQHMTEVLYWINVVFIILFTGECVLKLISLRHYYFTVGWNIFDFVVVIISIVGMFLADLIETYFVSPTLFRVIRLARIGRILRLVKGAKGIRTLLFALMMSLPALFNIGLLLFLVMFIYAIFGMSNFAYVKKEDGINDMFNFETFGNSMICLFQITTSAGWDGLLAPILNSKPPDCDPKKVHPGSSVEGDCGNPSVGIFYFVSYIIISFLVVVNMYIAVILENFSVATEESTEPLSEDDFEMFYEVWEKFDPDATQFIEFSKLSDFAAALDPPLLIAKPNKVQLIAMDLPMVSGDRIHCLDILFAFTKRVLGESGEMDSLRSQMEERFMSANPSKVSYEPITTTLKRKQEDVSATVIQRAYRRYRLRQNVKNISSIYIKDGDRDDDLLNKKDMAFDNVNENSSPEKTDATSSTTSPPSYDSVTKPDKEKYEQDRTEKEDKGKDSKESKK

SMILES | IC50
CS(=O)(=O)NC(=O)c1cc(F)c(COc2cccc(F)c2)cc1F [Example 116, 2,5-difluoro-4-[(3-fluorophenoxy)methyl]-N-(methylsulfonyl)benzamide] | 0.57 µM
CS(=O)(=O)NC(=O)c1cc(F)c(COc2ccccc2OC(F)(F)F)cc1F [Example 117, 2,5-difluoro-N-(methylsulfonyl)-4-{[2-(trifluoromethoxy)phenoxy]methyl}benzamide] | 2.2 µM
CS(=O)(=O)NC(=O)c1cc(F)c(COc2cc(F)cc(F)c2)cc1F [Example 118, 4-[(3,5-difluorophenoxy)methyl]-2,5-difluoro-N-(methylsulfonyl)benzamide] | > 1 µM
Cc1cc(C)cc(OCc2cc(F)c(C(=O)NS(C)(=O)=O)cc2F)c1 [Example 119, 4-[(3,5-dimethylphenoxy)methyl]-2,5-difluoro-N-(methylsulfonyl)benzamide] | 0.38 µM
Cc1ccc(OCc2cc(F)c(C(=O)NS(C)(=O)=O)cc2F)cc1C [Example 120, 4-[(3,4-dimethylphenoxy)methyl]-2,5-difluoro-N-(methylsulfonyl)benzamide] | 0.7 µM
COc1ccc(Cl)c(OCc2cc(F)c(C(=O)NS(C)(=O)=O)cc2F)c1 [Example 122, 4-[(2-chloro-5-methoxyphenoxy)methyl]-2,5-difluoro-N-(methylsulfonyl)benzamide] | 2.2 µM
CS(=O)(=O)NC(=O)c1cc(F)c(COc2cc(C(F)(F)F)ccc2F)cc1F [Example 123, 2,5-difluoro-4-{[2-fluoro-5-(trifluoromethyl)phenoxy]methyl}-N-(methylsulfonyl)benzamide] | 0.85 µM
CS(=O)(=O)NC(=O)c1cc(F)c(COc2cc(F)cc(Cl)c2)cc1F [Example 124, 4-[(3-chloro-5-fluorophenoxy)methyl]-2,5-difluoro-N-(methylsulfonyl)benzamide] | 0.18 µM
CS(=O)(=O)NC(=O)c1cc(F)c(COc2ccc(F)c(C#N)c2)cc1F [Example 125, 4-[(3-cyano-4-fluorophenoxy)methyl]-2,5-difluoro-N-(methylsulfonyl)benzamide] | 1.4 µM
CS(=O)(=O)NC(=O)c1cc(F)c(COc2c(F)cccc2F)cc1F [Example 126, 4-[(2,6-difluorophenoxy)methyl]-2,5-difluoro-N-(methylsulfonyl)benzamide] | > 3 µM
CS(=O)(=O)NC(=O)c1cc(F)c(COc2ccc(C#N)c(F)c2)cc1F [Example 127, 4-[(4-cyano-3-fluorophenoxy)methyl]-2,5-difluoro-N-(methylsulfonyl)benzamide] | 2.6 µM
COc1cc(F)cc(OCc2cc(F)c(C(=O)NS(C)(=O)=O)cc2F)c1 [Example 128, 2,5-difluoro-4-[(3-fluoro-5-methoxyphenoxy)methyl]-N-(methylsulfonyl)benzamide] | 2.9 µM
CS(=O)(=O)NC(=O)c1cc(F)c(COc2ccc(F)c(F)c2Cl)cc1F [Example 129, 4-[(2-chloro-3,4-difluorophenoxy)methyl]-2,5-difluoro-N-(methylsulfonyl)benzamide] | 1.9 µM
CS(=O)(=O)NC(=O)c1cc(F)c(COc2ccc3ccccc3c2)cc1F [Example 130, 2,5-difluoro-N-(methylsulfonyl)-4-[(2-naphthyloxy)methyl]benzamide] | 0.24 µM
Cc1cc(Cl)c(OCc2cc(F)c(C(=O)NS(C)(=O)=O)cc2F)cc1C#N [Example 131, 4-[(2-chloro-5-cyano-4-methylphenoxy)methyl]-2,5-difluoro-N-(methylsulfonyl)benzamide] | > 1 µM
COc1cc(C#N)ccc1OCc1cc(F)c(C(=O)NS(C)(=O)=O)cc1F [Example 132, 4-[(4-cyano-2-methoxyphenoxy)methyl]-2,5-difluoro-N-(methylsulfonyl)benzamide] | > 3 µM

SMILES | IC50
CS(=O)(=O)NC(=O)c1cc(F)c(COc2ccc(Cl)cc2F)cc1F [Example 133, 4-[(4-chloro-2-fluorophenoxy)methyl]-2,5-difluoro-N-(methylsulfonyl)benzamide] | > 1 µM
CS(=O)(=O)NC(=O)c1cc(F)c(COc2cc(Cl)ccc2Cl)cc1F [Example 134, 4-[(2,5-dichlorophenoxy)methyl]-2,5-difluoro-N-(methylsulfonyl)benzamide] | 0.47 µM
CS(=O)(=O)NC(=O)c1cc(F)c(COc2ccc(Cl)cc2C#N)cc1F [Example 135, 4-[(4-chloro-2-cyanophenoxy)methyl]-2,5-difluoro-N-(methylsulfonyl)benzamide] | > 3 µM
CS(=O)(=O)NC(=O)c1cc(F)c(COc2cccc(N3CCOCC3)c2)cc1F [Example 136, 2,5-difluoro-N-(methylsulfonyl)-4-[(3-morpholin-4-ylphenoxy)methyl]benzamide] | > 3 µM
CS(=O)(=O)NC(=O)c1cc(F)c(COc2ccccc2C#N)cc1F [Example 137, 4-[(2-cyanophenoxy)methyl]-2,5-difluoro-N-(methylsulfonyl)benzamide] | > 3 µM
CS(=O)(=O)NC(=O)c1cc(F)c(COc2ccc(-c3cocn3)cc2)cc1F [Example 138, 2,5-difluoro-N-(methylsulfonyl)-4-{[4-(1,3-oxazol-4-yl)phenoxy]methyl}benzamide] | 4.2 µM
COc1cc(OCc2cc(F)c(C(=O)NS(C)(=O)=O)cc2F)ccc1-n1cccn1 [Example 139, 2,5-difluoro-4-{[3-methoxy-4-(1H-pyrazol-1-yl)phenoxy]methyl}-N-(methylsulfonyl)benzamide] | > 3 µM
CS(=O)(=O)NC(=O)c1cc(F)c(COc2c(F)ccc(F)c2F)cc1F [Example 140, 2,5-difluoro-N-(methylsulfonyl)-4-[(2,3,6-trifluorophenoxy)methyl]benzamide] | 2.2 µM
CS(=O)(=O)NC(=O)c1cc(F)c(COc2ccc(C(F)(F)F)cc2)cc1F [Example 141, 2,5-difluoro-N-(methylsulfonyl)-4-{[4-(trifluoromethyl)phenoxy]methyl}benzamide] | 0.33 µM
CS(=O)(=O)NC(=O)c1cc(F)c(COc2ccc(F)c(C(F)(F)F)c2)cc1F [Example 142, 2,5-difluoro-4-{[4-fluoro-3-(trifluoromethyl)phenoxy]methyl}-N-(methylsulfonyl)benzamide] | 0.6 µM
CC(C)Oc1ccc(F)cc1OCc1cc(F)c(C(=O)NS(C)(=O)=O)cc1F [Example 143, 2,5-difluoro-4-[(5-fluoro-2-isopropoxyphenoxy)methyl]-N-(methylsulfonyl)benzamide] | 9.7 µM
CS(=O)(=O)NC(=O)c1cc(F)c(COc2ccc(OC(F)(F)F)cc2)cc1F [Example 144, 2,5-difluoro-N-(methylsulfonyl)-4-{[4-(trifluoromethoxy)phenoxy]methyl}benzamide] | 0.15 µM
CS(=O)(=O)NC(=O)c1cc(F)c(COc2ccc(F)cc2C2CC2)cc1F [Example 145, 4-[(2-cyclopropyl-4-fluorophenoxy)methyl]-2,5-difluoro-N-(methylsulfonyl)benzamide] | 2.3 µM
COc1ccc(OCc2cc(F)c(C(=O)NS(C)(=O)=O)cc2F)c(C#N)c1 [Example 146, 4-[(2-cyano-4-methoxyphenoxy)methyl]-2,5-difluoro-N-(methylsulfonyl)benzamide] | > 1 µM
CC(C)c1ccc(OCc2cc(F)c(C(=O)NS(C)(=O)=O)cc2F)cc1 [Example 147, 2,5-difluoro-4-[(4-isopropylphenoxy)methyl]-N-(methylsulfonyl)benzamide] | 0.17 µM
